Experimental data: patent publication US11147816B2, “Composition for inducing differentiation and protection of neural stem cells and method for inducing neuro-regeneration using the same composition” (GENUV Inc., priority 2016, dated 2021)
Entries after “also recorded” stand apart in the source; their conditions may differ. Like-named read-outs stand apart in the source and are kept apart here.

Assays:
[1] = system: mouse adult neural stem cells; conditions: for cell protection and NSC differentiation under amyloid-beta cytotoxicity: 10 μM amyloid-beta, each at its optimal concentration (AS703026 10, AZD8330 1, PD318088 1, binimetinib 10, refametinib 1, PD0325901 10, RO5126766 10 μM); for cell toxicity / cell death (morphology): AS703026 10 μM; for concentration at which the differentiation-inducing effect starts: no amyloid-beta
Protocol: NSC were isolated from the subventricular zone of week 8 mouse brain, treated with 20 ng/ml human basic fibroblast growth factor (bFGF) and 20 ng/ml human epidermal growth factor (EGF) in an IPM medium, and cultured as a suspension in 24-well plates for 7 days.
Two days before the isolation of single cells, 6-well plates were prepared by treating the wells with 10 μg/ml poly-L-ornithine solution and incubating overnight at room temperature for coating. The next day, poly-L-ornithine solution was removed and the plates were washed 3 times with sterilized triple distilled water. […] The culture solution used is N2 culture medium (supplemented with 20 ng/ml bFGF and 20 ng/ml EGF). Right before seeding, the coating solution was suctioned out, and the single cells were uniformly seeded into the culture plate before the plate dried up. Cells were allowed to attach to the plates for about one minute, and after checking that cells were sufficiently attached, an additional 1.5 ml of culture medium (N2 culture medium with 20 ng/ml bFGF and 20 ng/ml EGF) was added to the cells and cultured in a 37° C. incubator for 24 hours.
Wells not treated with amyloid-beta were left to use as negative controls.
Gibco's (Waltham, Mass.) human Aβ (1-42) was purchased to use for the amyloid-beta (Aβ), and the following process was followed to create oligomers. First, amyloid-beta was dissolved in 100% HFIP (1,1,1,3,3,3-hexafluoro-2-propanol) (Sigma, cat#.105228) to obtain a concentration of 1 mg/ml and vortexed at room temperature for 1 hour. Then, it was dried for 10 minutes in a speed Vac, after which DMSO (Sigma, cat#.D2650) was added to bring the concentration to 5 mM and then lightly vortexed at room temperature for 10 minutes. […] The solution was incubated at 4° C. for 24 hours and then added into the cultured cells.
The NCSs were cultured with the daily addition of EGF, bFGF, amyloid-beta, and test materials for 4 days.

MEK2 = MEK2 (Homo sapiens (Human), UniProt P36507); conditions: cited from earlier work
Chain of MEK2 (P36507 whole entry, species assumed): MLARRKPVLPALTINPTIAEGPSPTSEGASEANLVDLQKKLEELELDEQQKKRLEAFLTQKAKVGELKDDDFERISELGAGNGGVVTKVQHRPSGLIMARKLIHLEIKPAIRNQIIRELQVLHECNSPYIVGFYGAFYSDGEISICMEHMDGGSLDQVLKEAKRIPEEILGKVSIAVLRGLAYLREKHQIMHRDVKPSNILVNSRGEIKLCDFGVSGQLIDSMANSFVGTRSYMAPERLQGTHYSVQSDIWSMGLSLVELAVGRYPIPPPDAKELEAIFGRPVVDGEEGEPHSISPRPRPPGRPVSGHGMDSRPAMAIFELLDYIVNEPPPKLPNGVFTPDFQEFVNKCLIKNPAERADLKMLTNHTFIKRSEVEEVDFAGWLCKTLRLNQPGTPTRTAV

MEK1 = MEK1 (Homo sapiens (Human), UniProt Q02750); conditions: cited from earlier work
Chain of MEK1 (Q02750 whole entry, species assumed): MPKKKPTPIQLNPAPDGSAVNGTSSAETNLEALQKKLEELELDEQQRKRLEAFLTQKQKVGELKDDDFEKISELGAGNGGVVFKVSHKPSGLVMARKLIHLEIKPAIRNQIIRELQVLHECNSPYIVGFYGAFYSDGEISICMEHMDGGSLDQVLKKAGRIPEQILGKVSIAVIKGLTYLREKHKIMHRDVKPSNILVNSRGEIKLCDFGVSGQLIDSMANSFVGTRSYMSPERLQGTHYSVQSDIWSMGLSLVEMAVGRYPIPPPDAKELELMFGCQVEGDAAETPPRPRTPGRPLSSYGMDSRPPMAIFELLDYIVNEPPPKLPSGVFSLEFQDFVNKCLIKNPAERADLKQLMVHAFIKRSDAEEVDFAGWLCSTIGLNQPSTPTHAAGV

[2] = system: mouse embryonic neural stem cells; test: Morphology analysis of NSC differentiation in mouse embryonic neural stem cells (Examples 1, 6); format: cell-based; conditions: for concentration at which differentiation morphology starts: tested at 0.1, 1.0, 10 μM
Protocol: Neural stem cells were isolated from the brain of a day 14.5 mouse embryo, treated with 10 ng/ml human basic fibroblast growth factor (bFGF) (Peprotech, Princeton, NG, cat#.100-18B) and 20 ng/ml human epidermal growth factor (EGF) (Peprotech, cat#. AF-100-15) in a N2 culture medium, and cultured in suspension in a 25 cm2 flask (Nunc, Pittsburgh, Pa.) for 4 days. Formation of neurospheres was observed after 2 days.
In order to isolate single cells, 6-well plates were prepared the day before by treating the wells with 15 μg/ml poly-L-ornithine (Sigma, St. Louis, Mo., cat#.P2533) solution and incubating overnight at 37° C. for coating. The day of the single cell isolation, poly-L-ornithine solution was removed, the plates were washed with PBS three times, and 10 μg/ml fibronectin (Gibco, Waltham, Mass., cat#. 33016015) solution was added and incubated at 37° C. for 2 hours for coating.
Various concentrations of the compound of [Formula 1] […]

[3] = system: mouse embryonic neural stem cells; test: qRT-PCR of relative mRNA expression of neuronal markers in mouse embryonic NSC (Examples 4-1, 4-2, 6); format: cell-based; conditions: 10 μM (10000 nM)
Protocol: Isopropanol (Ducsan, GyunggiDo, Korea, cat#. 67-63-0) was added and mixed for RNA isolation, then centrifuged again to remove the supernatant and obtain the pellet. The RNA pellet was resuspended in 75% ethanol (Ducsan, cat#. 64-17-15), centrifuged, and the supernatant removed. The pellet was then resuspended in sterilized triple distilled water to obtain the mRNA, incubated for 10 minutes at 55° C., and stored at −80° C.
Sterilized triple distilled water, […] oligo dT, and 1 mM dNTP were added to the RNA and incubated for 5 minutes at 65° C. This was followed by the addition of 5X First-strand buffer, 10 mM DTT, and M-MLV reverse transcriptase and incubated at 42° C. for 1 hour, then at 72° C. for 15 minutes, and at 4° C. for 30 minutes. The synthesized cDNA was stored at −20° C.
The term relative mRNA expression level signifies that in order to normalize each group's total RNA level, the mRNA expression level of each differentiation marker is divided by the expression level of GAPDH whose expression level is fairly constant across cells, and then the values of each test material are compared with those of the controls (undifferentiated NSC) in each group.

[4] = system: mouse embryonic neural stem cells; test: Immunocytochemistry analysis, Tuj1 and DAPI staining (Example 3); format: cell-based; conditions: 4 days
Protocol: Tuj1 (Neuron specific class III beta-tubulin) is a neuron specific marker protein, which was conjugated to rhodamine to show fluorescent red, while DAPI binds to the cell DNA and stains the cell nuclei fluorescent blue. […] The medium was removed and the cells were washed with PBS. After fixing with 10% formaldehyde (Sigma cat#. HT501128) at room temperature for 10 minutes, they were washed again with PBS. They were permeabilized with 0.2% Triton X-100 (Sigma, cat#. 93443) at room temperature for 15 minutes, washed with PBS, and incubated with 10% BSA (Sigma, cat#. A2153)+1% normal goat serum (Vector lab, Burlingame, Calif., cat#. S1000) at room temperature for 1 hour. […] The solution was removed, washed with PBS, and incubated at room temperature for 1 hour with the secondary antibody (rhodamine-conjugated antibody) diluted in 1% BSA+1% normal goat serum at a ratio of 1:200. Then, the cells were washed with PBS, incubated with 5 μg/ml DAPI (Sigma, cat#. D9542) for 5 minutes, washed with PBS again, and mounted on a slide glass for analysis with a fluorescent microscope.

MEK 1, MEK2 = conditions: literature reference; cited from earlier work
[5] = 1.0 nM and 10 nM, day 2 of culture
[6] = 1.0 μM and 10 μM, day 2 of culture
[7] = trametinib 10 nM, 100 nM, memantine 5 μM, 10 μM, 4 days

Molecule: BI847325
- cell proliferation (morphology) [1, 5]: cell proliferation seemed to be somewhat inhibited
- differentiation-inducing effect (morphology) [1, 5]: a differentiation-inducing effect was not observed
- differentiation-inducing effect (morphology) ([1]; 0.1 μM, day 2 of culture): only a weak differentiation-inducing effect
- cell death (morphology) [1, 6]: all the cells died

Molecule: O=C(c1ccc(F)c(F)c1Nc1ccc(I)cc1F)N1CC(O)([C@@H]2CCCCN2)C1 [cobimetinib]
- IC50 (MEK2): 199 nM
- differentiation of adult NSC (morphology) ([1]; 10 μM, regardless of amyloid-beta, day 2): did not induce the differentiation of adult NSC; also recorded: does not induce the differentiation of mouse adult neural stem cells
- selectivity toward MEK1 compared with MEK2 (MEK1; Molecules 2017;22:1551): ≥ 100 ×
- IC50 (MEK1): 0.95 nM

Molecule: Cc1cc(C(=O)NOCCO)c(Nc2ccc(I)cc2F)n(C)c1=O [AZD8330]
- cell protection and NSC differentiation under amyloid-beta cytotoxicity ([1]; day 2): provided cell protection and induced the differentiation of NSC
- concentration at which differentiation morphology starts ([2]; day 2 of culture): 1.0 μM

Molecule: O=C(NOCC(O)CO)c1cc(Br)c(F)c(F)c1Nc1ccc(I)cc1F (stereo not drawn) [PD318088]
- cell protection and NSC differentiation under amyloid-beta cytotoxicity ([1]; day 2): provided cell protection and induced the differentiation of NSC
- concentration at which differentiation morphology starts ([2]; day 2 of culture): 1.0 μM

Molecule: O=C(NOCC1CC1)c1ccc(F)c(F)c1Nc1ccc(I)cc1Cl [PD184352]
- NSC differentiation-inducing effect (morphology) ([2]; 0.1 μM, day 2 of culture): only a weak NSC differentiation-inducing effect
- cell death (morphology) [2, 6]: all the cells died

Molecule: O=C(NC[C@H](O)CO)c1ccncc1Nc1ccc(I)cc1F [AS703026]
- Tuj1 and TH mRNA expression compared with trametinib [3]: comparable to those of 25 nM trametinib
- cell protection and NSC differentiation under amyloid-beta cytotoxicity ([1]; day 2): provided cell protection and induced the differentiation of NSC
- concentration required for neuronal differentiation ([1]; regardless of 10 μM amyloid-beta treatment, 4 days): 10 µM
- cell toxicity / cell death (morphology) [1, 7]: did not elicit cell toxicity
- concentration required for neuronal differentiation to initiate ([2]; added daily, 4 days of culture): 1.0 µM
- concentration at which differentiation morphology starts ([2]; day 2 of culture): 10 μM
- neuron differentiation by Tuj1 staining ([4]; 0.1 μM): no differentiation was observed
- neuron differentiation by Tuj1 staining ([4]; 1.0 μM): neuron differentiation occurs at this concentration, albeit only to a marginal extent

Molecule: O=C(NOC[C@H](O)CO)c1ccc(F)c(F)c1Nc1ccc(I)cc1F [PD0325901]
- concentration at which the differentiation-inducing effect starts ([1]; day 2 of culture): 0.1 µM

Molecule: Cn1cnc2c(F)c(Nc3ccc(Br)cc3F)c(C(=O)NOCCO)cc21 [binimetinib]
- IC50 (MEK 1, MEK2): 12 nM
- cell protection and NSC differentiation under amyloid-beta cytotoxicity ([1]; day 2): provided cell protection and induced the differentiation of NSC
- concentration at which differentiation morphology starts ([2]; day 2 of culture): 10 μM

Molecule: COc1cc(F)c(F)c(Nc2ccc(I)cc2F)c1NS(=O)(=O)C1(C[C@H](O)CO)CC1 [refametinib]
- cell protection and NSC differentiation under amyloid-beta cytotoxicity ([1]; day 2): provided cell protection and induced the differentiation of NSC
- concentration at which differentiation morphology starts ([2]; day 2 of culture): 1.0 μM

Molecule: N#CC(=C(/N)Sc1ccccc1N)/C(C#N)=C(\N)Sc1ccccc1N [U0126]
- cell proliferation (morphology) ([1]; 0.1 μM and 1.0 μM, day 2 of culture): inhibition of cell proliferation
- differentiation-inducing effect (morphology) ([1]; 2.5 μM, day 2 of culture): did not show any clear differentiation-inducing effect
- cytotoxicity (morphology) ([1]; 10 μM, day 2 of culture): showed cell cytotoxicity
- NSC differentiation-inducing effect (morphology) ([1]; all concentrations tested): failed to show any NSC differentiation-inducing effect

Molecule: CNS(=O)(=O)Nc1nccc(Cc2c(C)c3ccc(Oc4ncccn4)cc3oc2=O)c1F [RO5126766]
- cell protection and NSC differentiation under amyloid-beta cytotoxicity ([1]; day 2): provided cell protection and induced the differentiation of NSC
- concentration at which the differentiation-inducing effect starts ([1]; day 2 of culture): 1.0 µM

Molecule: CC12CC3CC(C)(C1)CC(N)(C3)C2 [memantine]
- cell toxicity / cell death (morphology) [1, 7]: death of neural stem cells
- differentiation of NSC into neurons (morphology) ([1]; with or without 10 μM oligomeric Aβ(1-42), trametinib 10 nM, 100 nM, memantine 5 μM, 10 μM, 4 days): the differentiation of NSC into neurons was not observed
